Experimental data: patent US20010044425A1, “Compositions useful in the treatment of diseases of connective tissues” (priority 2000, published 2001)
Entries after “also recorded” stand apart in the source; their conditions may differ. Where two headings read alike, the source gives them in different places.

Test system: cartilage precursor cells from the developing limb bud of normal chick embryos
Experiment: Cartilage development in micromass cultures of cartilage precursor cells
Type: cell-based
[1] = varying doses of the salt added to basic culture medium (about 0.6 μg/ml ferrous sulphate, about 75 μg/ml ascorbic acid) vs control group without addition, FIG. 2, FIG. 4

Compound | cartilage development (amount of cartilage produced) | further results
O=C1O[C@H]([C@@H](O)CO)C(O)=C1O [ascorbic acid] | – | cartilage development (amount of cartilage produced) (ascorbic acid 75 or 150 μg/ml added vs control with no ascorbic acid added, FIG. 1): significantly enhances cartilage development in a dose-dependent manner
O=S(=O)([O-])[O-].[Co+2] [cobalt (II) sulphate] | No statistically significant increase in cartilage development; also recorded: significantly reduce the amount of cartilage produced in a dose-dependent manner | –
O=S(=O)([O-])[O-].O=S(=O)([O-])[O-].O=S(=O)([O-])[O-].[Fe+3].[Fe+3] [ferric sulphate] | no statistically significant difference | –
O=C([O-])/C=C/C(=O)[O-].[Fe+2] [ferrous fumarate] | – | cartilage development (amount of cartilage produced) [1]: significantly enhanced cartilage production
O=S(=O)([O-])[O-].[Fe+2] [ferrous sulphate] | significantly enhanced cartilage development in a dose-dependent manner | cartilage production when combined with ascorbic acid: significantly enhanced the cartilage production
O=S(=O)([O-])[O-].[K+].[K+] [potassium sulphate] | No statistically significant increase in cartilage development | –
O=S(=O)([O-])[O-].[Zn+2] [zinc sulphate] | no statistically significant increase in cartilage development | –
ferrous ascorbate | – | cartilage development (amount of cartilage produced) [1]: significantly enhanced cartilage production
